Measurements published in US8952024B2, “Herbicidal pyrimidone derivatives” (E I du Pont de Nemours and Company, priority 2009, dated 2015).

How the values were obtained:
Type in all cases: in vivo
[1] = test system: Italian ryegrass (Lolium multiflorum); assay: Test B pre-/postemergence plant response; conditions: for Ryegrass, Italian plant response rating (0 to 100 scale): 62 g ai/ha, postemergence, 0 is no effect, 100 is complete control, 13 to 15 days; for Plant response rating, Ryegrass, Italian: Postemergence
How it was run: (§1)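 Visual injury, 0–100 scale (100 = complete control), rated against controls after 13 to 15 days in greenhouse. Pre-emergence: seeds in loam/sand soil, treated at planting. Post-emergence: 1- to 4-leaf plants (2 to 18 cm) in peat/vermiculite medium. Compounds formulated in non-phytotoxic solvent with surfactant.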

[2] = test system: Surinam grass (Brachiaria decumbens); assay: Test B pre-/postemergence plant response; conditions: for Surinam Grass plant response rating (0 to 100 scale): 62 g ai/ha, postemergence, 0 is no effect, 100 is complete control, 13 to 15 days; for Plant response rating, Surinam Grass: Postemergence
How it was run: as §1

[3] = test system: blackgrass (Alopecurus myosuroides); assay: Test B pre-/postemergence plant response; conditions: for Blackgrass plant response rating (0 to 100 scale): 62 g ai/ha, 0 is no effect, 13 to 15 days
How it was run: as §1

[4] = test system: cocklebur (Xanthium strumarium); assay: Test B pre-/postemergence plant response; conditions: for Cocklebur plant response rating (0 to 100 scale): 62 g ai/ha, 0 is no effect, 13 to 15 days
How it was run: as §1

corn (Zea mays) = assay: Test B pre-/postemergence plant response; conditions: for Corn plant response rating (0 to 100 scale): 62 g ai/ha, 0 is no effect, 13 to 15 days
How it was run: as §1

[5] = test system: downy bromegrass (Bromus tectorum); assay: Test B pre-/postemergence plant response; conditions: for Bromegrass, Downy plant response rating (0 to 100 scale): 62 g ai/ha, 0 is no effect, 13 to 15 days
How it was run: as §1

[6] = test system: giant foxtail (Setaria faberii); assay: Test B pre-/postemergence plant response; conditions: for Foxtail, Giant plant response rating (0 to 100 scale): 62 g ai/ha, 0 is no effect, 13 to 15 days
How it was run: as §1

[7] = test system: morningglory (Ipomoea coccinea); assay: Test B pre-/postemergence plant response; conditions: for Morningglory plant response rating (0 to 100 scale): 62 g ai/ha, 0 is no effect, 13 to 15 days
How it was run: as §1

[8] = test system: pigweed (Amaranthus retroflexus); assay: Test B pre-/postemergence plant response; conditions: for Pigweed plant response rating (0 to 100 scale): 62 g ai/ha, 0 is no effect, 13 to 15 days
How it was run: as §1

wild oat (Avena fatua) = assay: Test B pre-/postemergence plant response; conditions: for Oat, Wild plant response rating (0 to 100 scale): 62 g ai/ha, 0 is no effect, 13 to 15 days
How it was run: as §1

[9] = test system: canarygrass (Phalaris minor); assay: Test B postemergence plant response; conditions: for Canarygrass plant response rating (0 to 100 scale): 62 g ai/ha, 0 is no effect, 13 to 15 days
How it was run: (§2)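 Plants grown in peat/vermiculite medium were sprayed postemergence at 2–18 cm height (1- to 4-leaf stage). After 13–15 days in the greenhouse, response was rated visually against untreated controls on a 0–100 scale (0 no effect, 100 complete control).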

[10] = test system: chickweed (Stellaria media); assay: Test B postemergence plant response; conditions: for Chickweed plant response rating (0 to 100 scale): 62 g ai/ha, 0 is no effect, 13 to 15 days
How it was run: as §2

[11] = test system: windgrass (Apera spica-venti); assay: Test B postemergence plant response; conditions: for Windgrass plant response rating (0 to 100 scale): 62 g ai/ha, postemergence, 0 is no effect, 100 is complete control, 13 to 15 days; for Plant response rating, Windgrass: Postemergence
How it was run: as §2

[12] = 125 g ai/ha, scale 0 to 100 (0 no effect, 100 complete control)
[13] = 250 g ai/ha, scale 0 to 100 (0 no effect, 100 complete control)
[14] = 31 g ai/ha, postemergence, scale 0 to 100, 0 is no effect, 100 is complete control
[15] = postemergence, 100 is complete control
[16] = Postemergence, 125 g ai/ha, scale 0 to 100 (0 no effect, 100 complete control)
[17] = Postemergence, 250 g ai/ha, scale 0 to 100 (0 no effect, 100 complete control)
[18] = 31 g ai/ha, 0 to 100 scale (0 no effect, 100 complete control)
[19] = Postemergence, 31 g ai/ha, 0 to 100 scale (0 no effect, 100 complete control)

For `COCC(C)n1c(-c2ccccc2)ncc(C(=O)C2=C(O)CCCC2=O)c1=O` (stereo not drawn) [Compound 107], the “Ryegrass, Italian plant response rating (0 to 100 scale)” value [1] was 0, the “Plant response rating, Ryegrass, Italian” value [1, 12] was 5 and the “Plant response rating, Ryegrass, Italian” value [1, 13] was 5. For the same compound, the “Surinam Grass plant response rating (0 to 100 scale)” value [2] was 75, the “Plant response rating, Surinam Grass” value [2, 12] was 80 and the “Plant response rating, Surinam Grass” value [2, 13] was 85. The “Plant response rating, Blackgrass” value [3, 14] was 0, the “Blackgrass plant response rating (0 to 100 scale)” value [3, 15] was 5 and the “Plant response rating, Blackgrass” value [3, 16] was 15. The “Plant response rating, Blackgrass” value [3, 17] was 20, the “Plant response rating, Cocklebur” value [4, 14] was 98 and the “Cocklebur plant response rating (0 to 100 scale)” value [4, 15] was 100. The “Plant response rating, Cocklebur” value [4, 16] was 100, the “Plant response rating, Cocklebur” value [4, 17] was 100 and the “Plant response rating, Corn” value (corn (Zea mays); [14]) was 65. The “Corn plant response rating (0 to 100 scale)” value (corn (Zea mays); [15]) was 65, the “Plant response rating, Corn” value (corn (Zea mays); [16]) was 75 and the “Plant response rating, Corn” value (corn (Zea mays); [17]) was 85. For the same compound, the “Plant response rating, Bromegrass, Downy” value [5, 14] was 0, the “Bromegrass, Downy plant response rating (0 to 100 scale)” value [5, 15] was 5 and the “Plant response rating, Bromegrass, Downy” value [5, 16] was 10. The “Plant response rating, Bromegrass, Downy” value [5, 17] was 30, the “Plant response rating, Foxtail, Giant” value [6, 14] was 75 and the “Foxtail, Giant plant response rating (0 to 100 scale)” value [6, 15] was 80. For the same compound, the “Plant response rating, Foxtail, Giant” value [6, 16] was 85, the “Plant response rating, Foxtail, Giant” value [6, 17] was 95 and the “Plant response rating, Morningglory” value [7, 14] was 100. For the same compound, the “Morningglory plant response rating (0 to 100 scale)” value [7, 15] was 100, the “Plant response rating, Morningglory” value [7, 16] was 100 and the “Plant response rating, Morningglory” value [7, 17] was 100. The “Plant response rating, Pigweed” value [8, 14] was 95, the “Pigweed plant response rating (0 to 100 scale)” value [8, 15] was 100 and the “Plant response rating, Pigweed” value [8, 16] was 100. The “Plant response rating, Pigweed” value [8, 17] was 100, the “Plant response rating, Oat, Wild” value (wild oat (Avena fatua); [14]) was 0 and the “Oat, Wild plant response rating (0 to 100 scale)” value (wild oat (Avena fatua); [15]) was 5. For the same compound, the “Plant response rating, Oat, Wild” value (wild oat (Avena fatua); [16]) was 20, the “Plant response rating, Oat, Wild” value (wild oat (Avena fatua); [17]) was 40 and the “Plant response rating, Canarygrass” value [9, 14] was 5. The “Canarygrass plant response rating (0 to 100 scale)” value [9, 15] was 15, the “Plant response rating, Canarygrass” value [9, 16] was 60 and the “Plant response rating, Canarygrass” value [9, 17] was 80. The “Plant response rating, Chickweed” value [10, 14] was 98, the “Chickweed plant response rating (0 to 100 scale)” value [10, 15] was 100 and the “Plant response rating, Chickweed” value [10, 16] was 100. For the same compound, the “Plant response rating, Chickweed” value [10, 17] was 100, the “Windgrass plant response rating (0 to 100 scale)” value [11] was 40 and the “Plant response rating, Windgrass” value [11, 12] was 80.
In the case of `COCCn1c(-c2cccc(F)c2)ncc(C(=O)C2=C(O)CCCC2=O)c1=O` [Compound 123], the “Ryegrass, Italian plant response rating (0 to 100 scale)” value [1] is reported as 5, the “Plant response rating, Ryegrass, Italian” value [1, 18] is reported as 0 and the “Plant response rating, Ryegrass, Italian” value [1, 12] is reported as 5. For the same compound, the “Plant response rating, Ryegrass, Italian” value [1, 13] was 50, the “Surinam Grass plant response rating (0 to 100 scale)” value [2] was 75 and the “Plant response rating, Surinam Grass” value [2, 18] was 25. For the same compound, the “Plant response rating, Surinam Grass” value [2, 12] was 85, the “Plant response rating, Surinam Grass” value [2, 13] was 85 and the “Blackgrass plant response rating (0 to 100 scale)” value [3, 15] was 20. For the same compound, the “Plant response rating, Blackgrass” value [3, 19] was 20, the “Plant response rating, Blackgrass” value [3, 16] was 40 and the “Plant response rating, Blackgrass” value [3, 17] was 80. The “Cocklebur plant response rating (0 to 100 scale)” value [4, 15] was 80, the “Plant response rating, Cocklebur” value [4, 19] was 65 and the “Plant response rating, Cocklebur” value [4, 16] was 100. For the same compound, the “Plant response rating, Cocklebur” value [4, 17] was 100, the “Corn plant response rating (0 to 100 scale)” value (corn (Zea mays); [15]) was 70 and the “Plant response rating, Corn” value (corn (Zea mays); [19]) was 35. For the same compound, the “Plant response rating, Corn” value (corn (Zea mays); [16]) was 75, the “Plant response rating, Corn” value (corn (Zea mays); [17]) was 80 and the “Bromegrass, Downy plant response rating (0 to 100 scale)” value [5, 15] was 5. For the same compound, the “Plant response rating, Bromegrass, Downy” value [5, 19] was 0, the “Plant response rating, Bromegrass, Downy” value [5, 16] was 10 and the “Plant response rating, Bromegrass, Downy” value [5, 17] was 45. For the same compound, the “Foxtail, Giant plant response rating (0 to 100 scale)” value [6, 15] was 75, the “Plant response rating, Foxtail, Giant” value [6, 19] was 65 and the “Plant response rating, Foxtail, Giant” value [6, 16] was 80. For the same compound, the “Plant response rating, Foxtail, Giant” value [6, 17] was 85, the “Morningglory plant response rating (0 to 100 scale)” value [7, 15] was 98 and the “Plant response rating, Morningglory” value [7, 19] was 70. The “Plant response rating, Morningglory” value [7, 16] was 100, the “Plant response rating, Morningglory” value [7, 17] was 100 and the “Pigweed plant response rating (0 to 100 scale)” value [8, 15] was 98. For the same compound, the “Plant response rating, Pigweed” value [8, 19] was 80, the “Plant response rating, Pigweed” value [8, 16] was 100 and the “Plant response rating, Pigweed” value [8, 17] was 100. For the same compound, the “Oat, Wild plant response rating (0 to 100 scale)” value (wild oat (Avena fatua); [15]) was 5, the “Plant response rating, Oat, Wild” value (wild oat (Avena fatua); [19]) was 0 and the “Plant response rating, Oat, Wild” value (wild oat (Avena fatua); [16]) was 30. For the same compound, the “Plant response rating, Oat, Wild” value (wild oat (Avena fatua); [17]) was 60, the “Canarygrass plant response rating (0 to 100 scale)” value [9, 15] was 40 and the “Plant response rating, Canarygrass” value [9, 19] was 25. For the same compound, the “Plant response rating, Canarygrass” value [9, 16] was 55, the “Plant response rating, Canarygrass” value [9, 17] was 85 and the “Chickweed plant response rating (0 to 100 scale)” value [10, 15] was 75. For the same compound, the “Plant response rating, Chickweed” value [10, 19] was 70, the “Plant response rating, Chickweed” value [10, 16] was 95 and the “Plant response rating, Chickweed” value [10, 17] was 100. For the same compound, the “Windgrass plant response rating (0 to 100 scale)” value [11] was 60, the “Plant response rating, Windgrass” value [11, 18] was 30 and the “Plant response rating, Windgrass” value [11, 12] was 80.
